target: GDP-bound KRAS protein (aa 1-169), containing both G12C and C118A amino acid substitutions (Homo sapiens, UniProt P01116, C118A/G12C); experiment: Coupled nucleotide exchange assay (SOS-mediated, AlphaScreen); assay type: biochemical; details: 5 min compound pre-incubation
Sequence (P01116 1-169 isoform P01116-2 G12C/C118A): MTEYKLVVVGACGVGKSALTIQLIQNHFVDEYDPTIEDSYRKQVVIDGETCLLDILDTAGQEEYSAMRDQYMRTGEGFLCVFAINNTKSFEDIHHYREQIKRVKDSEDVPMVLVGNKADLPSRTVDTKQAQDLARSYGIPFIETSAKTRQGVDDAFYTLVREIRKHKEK

SMILES	Coupled exchange IC50 (5 min)
C=CC(=O)N1CCN(c2nc(=O)n(-c3c(C)ccnc3C(C)C)c3nc(-c4cc(F)ccc4O)c(F)cc23)C(C)C1 (atropisomer, axis not shown; (M)) [Example 72-1, (M)-6-Fluoro-7-(5-fluoro-2-hydroxyphenyl)-1-(4-methyl-2-(2-propanyl)-3-pyridinyl)-4-((2S)-2-methyl-4-(2-propenoyl)-1-piperazinyl)pyrido[2,3-d]pyrimidin-2(1H)-one]	1.17 | nda μM
C=CC(=O)N1CCN(c2nc(=O)c(-c3ccccc3C)c3cc(-c4ccccc4Br)c(C)nn23)CC1 [Example 81-1, 3-(2-Bromophenyl)-2-methyl-5-(2-methylphenyl)-8-(4-(2-propenoyl)-1-piperazinyl)-6H-pyrimido[1,6-b]pyridazin-6-one]	172 | nda μM
C=CC(=O)N1C[C@H]2C[C@@H](C1)N2c1nc(=O)n(-c2c(C)ccnc2C(C)C)c2nc(-c3ccccc3F)c(Cl)cc12 (single isomer, unassigned) [Example 78-17, (M)-6-chloro-7-(2-fluorophenyl)-1-(4-methyl-2-(2-propanyl)-3-pyridinyl)-4-(3-(2-propenoyl)-3,6-diazabicyclo[3.1.1]heptan-6-yl)pyrido[2,3-d]pyrimidin-2(1H)-one]	26 | nda μM
C=CC(=O)N1CCN(c2nc(=O)n(-c3ccccc3C(C)(C)C)c3nc(-c4ccccc4F)c(F)cc23)[C@@H](C)C1 (single isomer, unassigned) [Example 58-17-1]	33.2 | nda μM
C=CC(=O)N1CCN(c2nc(=O)n(Cc3ccc(OC)cc3)c3nc(-c4c(O)cccc4F)c(Cl)cc23)[C@@H](C)C1 [Example 55-32, 6-chloro-7-(2-fluoro-6-hydroxyphenyl)-1-(4-methoxybenzyl)-4-((2S)-2-methyl-4-(2-propenoyl)-1-piperazinyl)pyrido[2,3-d]pyrimidin-2(1H)-one]	3.07 | nda μM
C=CC(=O)N1CCN(c2nc(=O)n(-c3ccccc3C(C)C)c3nc(-c4ccccc4F)c(OC)nc23)[C@@H](C)C1 [Example 109, 7-(2-Fluorophenyl)-6-methoxy-4-((2S)-2-methyl-4-(2-propenoyl)-1-piperazinyl)-1-(2-(2-propanyl)phenyl)-2(1H)-pteridinone]	1.32 | nda μM
C=CC(=O)N1CCN(c2nc(=O)n(-c3c(CC)cccc3CC)c3nc(N4CCOC[C@@H]4C)c(Cl)cc23)[C@@H](C)C1 [Example 66-30, 6-chloro-1-(2,6-diethylphenyl)-7-((3S)-3-methyl-4-morpholinyl)-4-((2S)-2-methyl-4-(2-propenoyl)-1-piperazinyl)pyrido[2,3-d]pyrimidin-2(1H)-one]	16.05 | nda μM
C=CC(=O)N1CCN(c2nc(=O)n(-c3c(N)cccc3C(C)C)c3nc(-c4ccccc4F)c(Cl)cc23)[C@@H](C)C1 (single isomer, unassigned) [Example 155-2]	13.5 | nda μM
C=CC(=O)N1CCN(c2nc(=O)n(-c3ccccc3C(C)C)c3nc(-c4cc(C(F)(F)F)nn4C)c(Cl)cc23)[C@@H](C)C1 [Example 67-2, 6-chloro-4-((2S)-2-methyl-4-(2-propenoyl)-1-piperazinyl)-7-(1-methyl-3-(trifluoromethyl)-1H-pyrazol-5-yl)-1-(2-(2-propanyl)phenyl)pyrido[2,3-d]pyrimidin-2(1H)-one]	6.45 | nda μM
C=CC(=O)N1CCN(c2nc(=O)n(-c3ncccc3C3(C#N)CC3)c3nc(-c4ccccc4F)c(Cl)cc23)[C@@H](C)C1 [Example 54-39, 1-(2-(6-chloro-7-(2-fluorophenyl)-4-((2S)-2-methyl-4-(2-propenoyl)-1-piperazinyl)-2-oxopyrido[2,3-d]pyrimidin-1(2H)-yl)-3-pyridinyl) cyclopropane carbonitrile]	32.1 | nda μM
C=CC(=O)N1CCN(c2nc(=O)n(-c3c(F)cccc3C(C)C)c3nc(-c4c(O)cccc4F)c(F)cc23)[C@@H](C)C1 (single isomer, unassigned) [Example 59-2-2]	7.49 | nda μM
C=CC(=O)N1CCN(c2nc(=O)n(-c3c(CC)cccc3CC)c3nc(N4CCC(CC)C4)c(Cl)cc23)[C@@H](C)C1 (stereo partly drawn) [Example 66-11, 6-chloro-1-(2,6-diethylphenyl)-7-(3-ethyl-1-pyrrolidinyl)-4-((2S)-2-methyl-4-(2-propenoyl)-1-piperazinyl)pyrido[2,3-d]pyrimidin-2(1H)-one]	29 | nda μM
C=CC(=O)N1CCN(c2nc(=O)n(-c3c(C)ccnc3C(C)C)c3nc(-c4nc(N)ccc4F)c(F)cc23)[C@@H](C)C1 (atropisomer, axis not shown; (M)) [Example 65-2, (M)-7-(6-amino-3-fluoro-2-pyridinyl)-6-fluoro-1-(4-methyl-2-(2-propanyl)-3-pyridinyl)-4-((2S)-2-methyl-4-(2-propenoyl)-1-piperazinyl)pyrido[2,3-d]pyrimidin-2(1H)-one]	1.31 | nda μM
C=CC(=O)N1CCN(c2nc(=O)n(-c3ccccc3C(C)C)c3nc(Cl)c(Cl)cc23)[C@@H](C)C1 (atropisomer, axis not shown; (P)) [Example 61-1-2, (P)-6,7-dichloro-4-((2S)-2-methyl-4-(2-propenoyl)-1-piperazinyl)-1-(2-(2-propanyl)phenyl)pyrido[2,3-d]pyrimidin-2(1H)-one]	20.6 | nda μM
C=CC(=O)N1CCN(c2nc(=O)n(-c3c(CC)cccc3CC)c3nc(N4CCOC(C(C)C)C4)c(Cl)cc23)[C@@H](C)C1 (stereo partly drawn) [Example 66-18, 6-chloro-1-(2,6-diethylphenyl)-4-((2S)-2-methyl-4-(2-propenoyl)-1-piperazinyl)-7-(2-(2-propanyl)-4-morpholinyl)pyrido[2,3-d]pyrimidin-2(1H)-one]	76.7 | nda μM
C=CC(=O)N1CCN(c2nc(=O)n(-c3ccccc3C(C)(C)C)c3nc(-c4ccccc4F)c(F)cc23)[C@@H](C)C1 [Example 58-17, 6-fluoro-7-(2-fluorophenyl)-1-(2-(2-methyl-2-propanyl)phenyl)-4-((2S)-2-methyl-4-(2-propenoyl)-1-piperazinyl)pyrido[2,3-d]pyrimidin-2(1H)-one]	1.68 | nda μM

Second part, the compound after the results:

Coupled exchange IC50 (5 min)	SMILES
35.4 | nda μM	C=CC(=O)N1CCC(c2cc(=O)n(CC(C)(C)C)c3nc(-c4ccccc4F)c(Cl)cc23)CC1 [Example 125, 6-Chloro-1-(2,2-dimethylpropyl)-7-(2-fluorophenyl)-4-(1-(2-propenoyl)-4-piperidinyl)-1,8-naphthyridin-2(1H)-one]
2.98 | nda μM	C=CC(=O)N1CCN(c2nc(=O)n(-c3ccccc3C3(C(F)(F)F)CC3)c3nc(-c4c(O)cccc4F)c(F)cc23)[C@@H](C)C1 [Example 59-1, 6-Fluoro-7-(2-fluoro-6-hydroxyphenyl)-4-((2S)-2-methyl-4-(2-propenoyl)-1-piperazinyl)-1-(2-(1-(trifluoromethyl)cyclopropyl)phenyl)pyrido[2,3-d]pyrimidin-2(1H)-one]
0.743 | nda μM	C=CC(=O)N1CCN(c2nc(=O)n(-c3c(C(C)C)cccc3N(C)C)c3nc(-c4ccccc4F)c(Cl)cc23)[C@@H](C)C1 (single isomer, unassigned) [Example 54-104-1]
1.05 | nda μM	C=CC(=O)N1CCN(c2nc(=O)n(-c3c(C)cc(N(C)C)cc3C(C)C)c3nc(-c4ccccc4F)c(Cl)cc23)[C@@H](C)C1 (single isomer, unassigned) [Example 55-16-1]
5.65 | nda μM	C=CC(=O)N1CCN(c2nc(=O)n(-c3ccccc3OC(F)(F)F)c3nc(-c4c(O)cccc4F)c(Cl)cc23)[C@@H](C)C1 [Example 54-49, 6-chloro-7-(2-fluoro-6-hydroxyphenyl)-4-((2S)-2-methyl-4-(2-propenoyl)-1-piperazinyl)-1-(2-(trifluoromethoxy)phenyl) pyrido[2,3-d]pyrimidin-2(1H)-one]
17.3 | nda μM	C=CC(=O)N1C[C@@H](C)N(c2nc(=O)n(-c3c(C(C)C)ncnc3C(C)C)c3nc(-c4ccccc4F)c(Cl)cc23)[C@H](C)C1 [Example 87-3]
20.1 | nda μM	C=CC(=O)N1CC(N(C)c2nc(=O)n(-c3c(C)ccnc3C(C)C)c3nc(-c4ccccc4F)c(Cl)cc23)C1 [76-2]
2.87 | nda μM	C=CC(=O)N1CCN(c2nc(=O)c(-c3ccccc3C(C)C)c3cc(-c4ccccc4F)c(C)nn23)[C@@H](C)C1 [Example 81-3, 3-(2-fluorophenyl)-2-methyl-8-((2S)-2-methyl-4-(2-propenoyl)-1-piperazinyl)-5-(2-(2-propanyl)phenyl)-6H-pyrimido[1,6-b]pyridazin-6-one]
8.31 | nda μM	C=CC(=O)N1CCN(c2nc(C)c(C(=O)N(C(C)C)C(C)C)c3nc(-c4ccccc4F)c(Cl)cc23)CC1 [Example 144, 3-Chloro-2-(2-fluorophenyl)-7-methyl-N,N-di(2-propanyl)-5-(4-(2-propenoyl)-1-piperazinyl)-1,6-naphthyridine-8-carboxamide]
5.48 | nda μM	C=CC(=O)N1CCN(c2nc(=O)n(-c3ccccc3C(C)C)c3nc(C4=CCCOC4)c(Cl)cc23)[C@@H](C)C1 [Example 54-76, 6-chloro-7-(5,6-dihydro-2H-pyran-3-yl)-4-((2S)-2-methyl-4-(2-propenoyl)-1-piperazinyl)-1-(2-(2-propanyl)phenyl)pyrido [2,3-d]pyrimidin-2(1H)-one]
5.51 | nda μM	C=CC(=O)N1CCN(c2nc(=O)n(-c3c(CC)cccc3CC)c3nc(N4CCC(F)(F)C4)c(Cl)cc23)[C@@H](C)C1 [Example 66-14, 6-chloro-1-(2,6-diethylphenyl)-7-(3,3-difluoro-1-pyrrolidinyl)-4-((2S)-2-methyl-4-(2-propenoyl)-1-piperazinyl)pyrido[2,3-d]pyrimidin-2(1H)-one]

same assay, conditions: read-out: Coupled exchange IC50 (5 min); 5 min compound pre-incubation

IC50	SMILES
3.29 µM	C=CC(=O)N1CC(Oc2nc(=O)n(-c3c(C)ccnc3C(C)C)c3nc(-c4ccccc4F)c(Cl)cc23)C1 (atropisomer, axis not shown; (M)) [Example 79-1, (M)-6-Chloro-7-(2-fluorophenyl)-1-(4-methyl-2-(2-propanyl)-3-pyridinyl)-4-((1-(2-propenoyl)-3-azetidinyl)oxy)pyrido[2,3-d]pyrimidin-2(1H)-one]
